Reference: patent US10750743B2, “Pyridazinone herbicides” (E.I. DU PONT DE NEMOURS AND COMPANY, priority 2015, dated 2020)

What was measured:
Assay type in all cases: in vivo
[1] = test system: rice (Oryza sativa); test: Test B flooded paddy test, visual rating; settings: Flood, 250 g ai/ha, applied to paddy water, rated after 13 to 15 d
Procedure: (§1) Plant species in the flooded paddy test selected from rice (Oryza sativa), sedge, umbrella (small-flower umbrella sedge, Cyperus difformis), ducksalad (Heteranthera limosa), and barnyardgrass (Echinochloa crus-galli) were grown to the 2-leaf stage for testing. At time of treatment, test pots were flooded to 3 cm above the soil surface, treated by application of test compounds directly to the paddy water, and then maintained at that water depth for the duration of the test. Treated plants and controls were maintained in a greenhouse for 13 to 15 d, after which time all species were compared to controls and visually evaluated. Plant response ratings, summarized in Table B, are based on a scale of 0 to 100 where 0 is no effect and 100 is complete control. A dash (-) response means no test result.

[2] = test system: sedge, umbrella (small-flower umbrella sedge, Cyperus difformis); test: Test B flooded paddy test, visual rating; settings: Flood, 250 g ai/ha, applied to paddy water, rated after 13 to 15 d
Procedure: as §1

[3] = test system: ducksalad (Heteranthera limosa); test: Test B flooded paddy test, visual rating; settings: Flood, 250 g ai/ha, applied to paddy water, rated after 13 to 15 d
Procedure: as §1

[4] = test system: barnyardgrass (Echinochloa crus-galli); test: Test B flooded paddy test, visual rating; settings: Flood, 250 g ai/ha, applied to paddy water, rated after 13 to 15 d
Procedure: as §1

[5] = test system: ryegrass, It. (Italian ryegrass, Lolium multiflorum); test: Test A preemergence, directed soil spray, visual injury rating; settings: 0 is no effect, 100 is complete control
Method in brief: (§2)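 Injury ratings, 0 (no effect) to 100 (complete control), were scored visually versus untreated plants roughly 10 d after treatment under greenhouse conditions. Treatments used surfactant-containing solvent formulations, sprayed onto soil preemergence or onto one- to two-leaf seedlings (2-10 cm) postemergence, grown in a loam-sand mix.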

[6] = test system: pigweed (Amaranthus retroflexus); test: as above; settings: 0 is no effect, 100 is complete control
Method in brief: as §2

[7] = test system: ragweed (common ragweed, Ambrosia elatior); test: as above; settings: 0 is no effect, 100 is complete control
Method in brief: as §2

[8] = test system: barnyardgrass (Echinochloa crus-galli); test: as above; settings: 0 is no effect, 100 is complete control
Method in brief: as §2

[9] = test system: kochia (Kochia scoparia); test: as above; settings: 0 is no effect, 100 is complete control
Method in brief: as §2

[10] = test system: foxtail, giant (giant foxtail, Setaria faberii); test: as above; settings: 0 is no effect, 100 is complete control
Method in brief: as §2

[11] = test system: ryegrass, It. (Italian ryegrass, Lolium multiflorum); test: Test A postemergence application, visual injury rating; settings: for Ryegrass, It. plant response rating: 0 to 100 scale, 0 no effect, 100 complete control
Method in brief: as §2

[12] = test system: pigweed (Amaranthus retroflexus); test: as above; settings: for Pigweed plant response rating: 0 to 100 scale, 0 no effect, 100 complete control
Method in brief: as §2

[13] = test system: ragweed (common ragweed, Ambrosia elatior); test: as above; settings: for Ragweed plant response rating: 0 to 100 scale, 0 no effect, 100 complete control
Method in brief: as §2

[14] = test system: corn (Zea mays); test: as above; settings: for Corn plant response rating: 0 to 100 scale, 0 no effect, 100 complete control
Method in brief: as §2

[15] = test system: barnyardgrass (Echinochloa crus-galli); test: as above; settings: 0 to 100 scale, 0 no effect, 100 complete control
Method in brief: as §2

[16] = test system: kochia (Kochia scoparia); test: as above; settings: for Kochia plant response rating: 0 to 100 scale, 0 no effect, 100 complete control
Method in brief: as §2

[17] = test system: foxtail, giant (giant foxtail, Setaria faberii); test: as above; settings: for Foxtail, Giant plant response rating: 0 to 100 scale, 0 no effect, 100 complete control
Method in brief: as §2

[18] = test system: galium (catchweed bedstraw, Galium aparine); test: as above; settings: for Galium plant response rating: 0 to 100 scale, 0 no effect, 100 complete control
Method in brief: as §2

[19] = test system: wheat (Triticum aestivum); test: as above; settings: for Wheat plant response rating: 0 to 100 scale, 0 no effect, 100 complete control
Method in brief: as §2

[20] = test system: blackgrass (Alopecurus myosuroides); test: as above; settings: 0 to 100 scale, 0 no effect, 100 complete control
Method in brief: as §2

[21] = 31 g ai/ha, 0 is no effect, 100 is complete control

Row | SMILES | Rice plant response rating (0 to 100 scale, 0 is no effect, 100 is complete control) [1] | Sedge, Umbrella plant response rating (0 to 100 scale, 0 is no effect, 100 is complete control) [2] | Ducksalad plant response rating (0 to 100 scale, 0 is no effect, 100 is complete control) [3] | Barnyardgrass plant response rating (0 to 100 scale, 0 is no effect, 100 is complete control) [4] | Plant response rating (0 to 100 scale), Ryegrass, It. ([5]; 125 g ai/ha) | Plant response rating (0 to 100 scale), Pigweed ([6]; 125 g ai/ha) | Plant response rating (0 to 100 scale), Ragweed ([7]; 125 g ai/ha) | Plant response rating (0 to 100 scale), Barnyardgrass ([8]; 125 g ai/ha) | Plant response rating (0 to 100 scale), Kochia ([9]; 125 g ai/ha) | Plant response rating (0 to 100 scale), Foxtail, Giant ([10]; 125 g ai/ha) | Ryegrass, It. plant response rating ([11]; 125 g ai/ha) | Pigweed plant response rating ([12]; 125 g ai/ha) | Ragweed plant response rating ([13]; 125 g ai/ha) | Corn plant response rating ([14]; 125 g ai/ha) | Barnyardgrass plant response rating ([15]; 125 g ai/ha) | Kochia plant response rating ([16]; 125 g ai/ha) | Foxtail, Giant plant response rating ([17]; 125 g ai/ha) | Galium plant response rating ([18]; 125 g ai/ha) | Wheat plant response rating ([19]; 125 g ai/ha) | Blackgrass plant response rating ([20]; 125 g ai/ha) | other results
1 | CCC(=O)Oc1c(C)nn(C)c(=O)c1-c1ccc(Cl)c2ccsc12 [Compound 36] | 0 | 80 | 0 | 0 | 90 | 90 | 0 | 0 | 0 | 0 | 80 | 30 | 0 | 0 | 10 | 30 | 0 | 100 | 0 | 0 | Plant response rating (0 to 100 scale), Ryegrass, It. ([5]; 31 g ai/ha): 20; Plant response rating (0 to 100 scale), Pigweed ([6]; 31 g ai/ha): 0; Plant response rating (0 to 100 scale), Ragweed ([7]; 31 g ai/ha): 0; Plant response rating (0 to 100 scale), Barnyardgrass ([8]; 31 g ai/ha): 0; Plant response rating (0 to 100 scale), Kochia ([9]; 31 g ai/ha): 0; Plant response rating (0 to 100 scale), Foxtail, Giant ([10]; 31 g ai/ha): 0; Ryegrass, It. plant response rating ([11]; 31 g ai/ha): 30; Pigweed plant response rating ([12]; 31 g ai/ha): 0; Ragweed plant response rating ([13]; 31 g ai/ha): 0; Corn plant response rating ([14]; 31 g ai/ha): 0; Barnyardgrass plant response rating ([15]; 31 g ai/ha): 0; Kochia plant response rating ([16]; 31 g ai/ha): 20; Foxtail, Giant plant response rating ([17]; 31 g ai/ha): 0; Galium plant response rating ([18]; 31 g ai/ha): 90; Wheat plant response rating ([19]; 31 g ai/ha): 0; Blackgrass plant response rating ([20]; 31 g ai/ha): 0
2 | CC(=O)Oc1c(C)nn(C)c(=O)c1-c1ccc(Cl)c2sccc12 [Compound 60] | 0 | 0 | 0 | 0 | 10 | 100 | 0 | 0 | 0 | 0 | 10 | 30 | 0 | 0 | 0 | 70 | 0 | 100 | 0 | 0 | Plant response rating (0 to 100 scale), Ryegrass, It. ([5]; 31 g ai/ha): 0; Plant response rating (0 to 100 scale), Pigweed ([6]; 31 g ai/ha): 0; Plant response rating (0 to 100 scale), Ragweed ([7]; 31 g ai/ha): 0; Plant response rating (0 to 100 scale), Barnyardgrass ([8]; 31 g ai/ha): 0; Plant response rating (0 to 100 scale), Kochia ([9]; 31 g ai/ha): 0; Plant response rating (0 to 100 scale), Foxtail, Giant ([10]; 31 g ai/ha): 0; Plant response rating (0 to 100 scale), Ryegrass, It. [11, 21]: 0; Plant response rating (0 to 100 scale), Pigweed [12, 21]: 0; Plant response rating (0 to 100 scale), Ragweed [13, 21]: 0; Plant response rating (0 to 100 scale), Corn [14, 21]: 0; Barnyardgrass plant response rating ([15]; 31 g ai/ha): 0; Plant response rating (0 to 100 scale), Kochia [16, 21]: 20; Plant response rating (0 to 100 scale), Foxtail, Giant [17, 21]: 0; Plant response rating (0 to 100 scale), Galium [18, 21]: 20; Plant response rating (0 to 100 scale), Wheat [19, 21]: 0; Blackgrass plant response rating ([20]; 31 g ai/ha): 0
3 | COC(=O)Oc1c(C)nn(C)c(=O)c1-c1c(C)ccc2cc(C)oc12 [Compound 17] | 0 | 0 | 0 | 0 | 90 | 100 | 90 | 0 | 100 | 10 | 100 | 100 | 80 | 0 | 20 | 90 | 50 | 100 | 0 | 40 | Plant response rating (0 to 100 scale), Ryegrass, It. ([5]; 31 g ai/ha): 40; Plant response rating (0 to 100 scale), Pigweed ([6]; 31 g ai/ha): 30; Plant response rating (0 to 100 scale), Ragweed ([7]; 31 g ai/ha): 30; Plant response rating (0 to 100 scale), Barnyardgrass ([8]; 31 g ai/ha): 0; Plant response rating (0 to 100 scale), Kochia ([9]; 31 g ai/ha): 40; Plant response rating (0 to 100 scale), Foxtail, Giant ([10]; 31 g ai/ha): 0; Ryegrass, It. plant response rating ([11]; 31 g ai/ha): 50; Pigweed plant response rating ([12]; 31 g ai/ha): 60; Ragweed plant response rating ([13]; 31 g ai/ha): 70; Corn plant response rating ([14]; 31 g ai/ha): 0; Barnyardgrass plant response rating ([15]; 31 g ai/ha): 10; Kochia plant response rating ([16]; 31 g ai/ha): 70; Foxtail, Giant plant response rating ([17]; 31 g ai/ha): 20; Galium plant response rating ([18]; 31 g ai/ha): 80; Wheat plant response rating ([19]; 31 g ai/ha): 0; Blackgrass plant response rating ([20]; 31 g ai/ha): 10
4 | Cc1nc2c(-c3c(O)c(C)nn(C)c3=O)cccc2s1 [Compound 27] | 0 | 0 | 0 | 0 | 30 | 0 | 20 | 0 | 0 | 0 | 20 | 0 | 0 | 0 | 0 | 0 | 20 | 0 | 0 | 0 | Plant response rating (0 to 100 scale), Ryegrass, It. ([5]; 500 g ai/ha): 40; Plant response rating (0 to 100 scale), Pigweed ([6]; 500 g ai/ha): 0; Plant response rating (0 to 100 scale), Ragweed ([7]; 500 g ai/ha): 20; Plant response rating (0 to 100 scale), Barnyardgrass ([8]; 500 g ai/ha): 0; Plant response rating (0 to 100 scale), Kochia ([9]; 500 g ai/ha): 0; Plant response rating (0 to 100 scale), Foxtail, Giant ([10]; 500 g ai/ha): 50; Ryegrass, It. plant response rating ([11]; 500 g ai/ha): 40; Pigweed plant response rating ([12]; 500 g ai/ha): 0; Ragweed plant response rating ([13]; 500 g ai/ha): 30; Corn plant response rating ([14]; 500 g ai/ha): 0; Barnyardgrass plant response rating ([15]; 500 g ai/ha): 20; Kochia plant response rating ([16]; 500 g ai/ha): 0; Foxtail, Giant plant response rating ([17]; 500 g ai/ha): 40; Galium plant response rating ([18]; 500 g ai/ha): 60; Wheat plant response rating ([19]; 500 g ai/ha): 0; Blackgrass plant response rating ([20]; 500 g ai/ha): 30
